Experiments:
D(2) dopamine receptor = D(2) dopamine receptor (Rattus norvegicus, UniProt P61169); test: Displacement of [3H]spiperone from rat dopamine D2 receptor in brain striatal membrane; format: cell membranes
Mus musculus [1] = test: Dopaminergic activity in CD1 mouse striatum assessed as dopamine turn over at 3.29 umol/kg, sc relative to control; format: functional
D(3) dopamine receptor = D(3) dopamine receptor (Rattus norvegicus, UniProt P19020); test: biochemical
Description: Displacement of [3H]spiperone from rat recombinant dopamine D3 receptor expressed in SF9 cells

Mus musculus [2] = test: Dopaminergic activity in CD1 mouse tuberculum olfactorium assessed as dopamine turn over at 3.29 umol/kg, sc relative to control; format: functional

Sequence of D(2) dopamine receptor (P61169 whole entry): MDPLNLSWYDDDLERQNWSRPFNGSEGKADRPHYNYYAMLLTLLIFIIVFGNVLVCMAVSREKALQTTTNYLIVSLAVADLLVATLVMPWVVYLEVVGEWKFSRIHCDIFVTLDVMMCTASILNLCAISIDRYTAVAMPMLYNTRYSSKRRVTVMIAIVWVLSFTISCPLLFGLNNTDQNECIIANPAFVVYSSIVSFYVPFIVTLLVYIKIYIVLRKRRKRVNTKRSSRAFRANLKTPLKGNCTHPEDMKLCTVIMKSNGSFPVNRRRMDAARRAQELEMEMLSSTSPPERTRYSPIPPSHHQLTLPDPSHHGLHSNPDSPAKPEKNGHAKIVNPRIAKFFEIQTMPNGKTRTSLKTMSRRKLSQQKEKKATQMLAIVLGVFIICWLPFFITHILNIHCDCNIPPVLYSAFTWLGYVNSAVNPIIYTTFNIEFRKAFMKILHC
Sequence of D(3) dopamine receptor (P19020 whole entry): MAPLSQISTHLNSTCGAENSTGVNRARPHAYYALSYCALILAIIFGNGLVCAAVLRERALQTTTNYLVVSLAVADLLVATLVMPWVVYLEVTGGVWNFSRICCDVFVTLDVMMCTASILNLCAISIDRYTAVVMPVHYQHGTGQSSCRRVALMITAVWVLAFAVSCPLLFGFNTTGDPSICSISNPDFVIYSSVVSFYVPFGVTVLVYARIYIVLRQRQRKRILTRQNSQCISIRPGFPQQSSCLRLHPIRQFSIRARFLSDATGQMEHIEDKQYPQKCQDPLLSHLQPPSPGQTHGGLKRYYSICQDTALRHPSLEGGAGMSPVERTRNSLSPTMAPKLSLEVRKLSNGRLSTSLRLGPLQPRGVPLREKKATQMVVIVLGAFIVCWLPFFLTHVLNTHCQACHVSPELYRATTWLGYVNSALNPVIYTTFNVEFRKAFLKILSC

Structure (SMILES)	IC50 (D(2) dopamine receptor) [µM]	Ki (D(2) dopamine receptor) [µM]	Activity (Mus musculus [1]) [%]	IC50 (D(3) dopamine receptor) [µM]	Ki (D(3) dopamine receptor) [µM]	Activity (Mus musculus [2]) [%]
CN(C)c1ccc(-c2cc3c4c(c2)-c2c(ccc(O)c2O)C[C@H]4N(C)CC3)cc1.Cl.Cl	0.484	0.242	52.3	0.178	0.0784	84.5
CN1CCc2cc(-c3ccccc3)cc3c2[C@H]1Cc1ccc(O)c(O)c1-3.Cl	0.0233	0.0117	44.2	0.0147	0.0077	50.9
CN1CCc2cc(-c3ccc(O)cc3)cc3c2[C@H]1Cc1ccc(O)c(O)c1-3.Cl	0.0085	0.00414	43.6	0.0037	0.00178	39.6
CN1CCc2cc(-c3cccc4c3oc3ccccc34)cc3c2[C@H]1Cc1ccc(O)c(O)c1-3.Cl	3.26	1.63	92	0.0494	0.0223	106.1
Cc1cc2c3c(c1)-c1c(ccc(O)c1O)C[C@H]3N(C)CC2.Cl	0.043	0.0207	42.3	0.0826	0.0401	43.6
CN1CCc2cccc3c2[C@H]1Cc1ccc(O)c(O)c1-3.CN1CCc2cccc3c2[C@H]1Cc1ccc(O)c(O)c1-3.Cl.Cl.O [APOMORPHINE HYDROCHLORIDE]	–	–	48.6	–	–	57.7

— ChEMBL document CHEMBL1157158, “Synthesis and neuropharmacological evaluation of 2-aryl- and alkylapomorphines” (Bioorg Med Chem, 2008)
